Active and inactive are the calls of the source. The rule behind the calls is not given here.
Columns and labels:
Macrophage [1] = assay: Reversal of increase in NO release in BALB/c mouse peritoneal macrophages upto 1 uM in presence of anti-peptide antibody; assay type: functional, cell-based
Macrophage [2] = assay: Increase in NO release in BALB/c mouse peritoneal macrophages upto 1 uM; assay type: functional, cell-based
Leishmania donovani [3] = assay: Antileishmanial activity against Leishmania donovani MHOM/IN/1983 infected BALB/c mouse peritoneal macrophages in presence of IFN-gamma; assay type: functional, organism-based
Leishmania donovani [4] = assay: Reversal of antileishmanial activity against Leishmania donovani MHOM/IN/1983 infected BALB/c mouse peritoneal macrophages in presence of 2-amino-5,6-dihydro-6-methyl-4H-1,3-thiazine; assay type: functional, organism-based
Leishmania donovani [5] = assay: Reversal of antileishmanial activity against Leishmania donovani MHOM/IN/1983 infected BALB/c mouse peritoneal macrophages in presence of anti-peptide antibody; assay type: functional, organism-based
Leishmania donovani [6] = assay: Antileishmanial activity against Leishmania donovani AG83 infected BALB/c mouse assessed as reduction of spleen burden at 0.5 mg/kg/day, iv in presence of IFN-gamma after 45 days; assay type: functional; parameters: scale not given: the % may be the effect or the level left
Leishmania donovani [7] = assay: Antileishmanial activity against Leishmania donovani AG83 infected BALB/c mouse assessed as reduction of liver burden at 0.5 mg/kg/day, iv in presence of IFN-gamma after 45 days; assay type: functional; parameters: scale not given: the % may be the effect or the level left

H-PVPVDENDEG-OH
Activity (Macrophage [1]): Active | Activity (Macrophage [2]): Active | IC50 (Leishmania donovani [3]): 0.52 µg/mL | Activity (Leishmania donovani [4]): Active | Activity (Leishmania donovani [5]): Active | Activity (Leishmania donovani [6]): 95% | Activity (Leishmania donovani [7]): 93%

— ChEMBL document CHEMBL1145485, “Immunomodulatory peptide from cystatin, a natural cysteine protease inhibitor, against leishmaniasis as a model macrophage disease” (Antimicrob Agents Chemother, 2007)
